Data from patent EP4759810A1, “PROTAC TARGETING BCL-XL PROTEIN AND USE THEREOF” (BEIJING SUNCELL BIO-MEDICAL CO., LTD., priority 2023, dated 2025).
Where two headings read alike, the source gives them in different places. One block for each molecule: values may come before it.

Assays:
Molt-4 cells [1] = test: Detection of E3 enzyme-dependence: Molt-4 cell killing with or without pomalidomide (CCK-8); format: cell-based; conditions: 10 µM pomalidomide, Figure 2
Method: (§1) Actively growing and healthy Molt-4 cells were collected, centrifuged at 1000 rpm for 5 minutes, and after removing the supernatant, the cells were resuspended in fresh RPMI-1640 medium containing 10% fetal bovine serum. Cell counting was then performed. The cell density was adjusted to 120,000 cells per milliliter, and 100 µL of the cell suspension was added to each well of a 96-well transparent cell culture plate. It was noted that the edge wells of the 96-well plate were not used for testing, and 300 µL of PBS alone was added to these wells to reduce medium evaporation.
Molt-4 cells were plated in duplicate according to the number of the tested small molecules, so as to test the effects with and without the addition of pomalidomide (a competitive ligand specific for E3 ligase), in which one half of the parallel cells was added 10 µM pomalidomide. A series of small molecule concentration gradients (0.001, 0.003, 0.01, 0.03, 0.1, 0.3, 1, and 3 µM) were pre-set, and a series of 2× drug dilutions for the above concentrated were prepared in DMEM medium containing 10% fetal bovine serum. 100 µL of the above DMEM medium containing the gradient concentrations of the drug was added to 96-well plates that have been pre-plated with cells, so that the final drug concentration in each well was the pre-set series of concentrations respectively. Three replicate wells were used for each test drug concentration. The 96-well plates were placed back in a 37°C incubator, and the cell viability was detected after three days.
(§2) Cell viability after drug treatment was detected by using the CCK-8 method: three days after adding the drugs, the plates were taken out, and the supernatant was discarded. Then, 100 µL of pre-prepared CCK-8 working solution was added to each well. The CCK-8 working solution was obtained through diluting a CCK-8 stock solution (C0041, Beyotime) by 10-fold volumn with a serum-free DMEM culture medium. The 96-well plates with the added CCK-8 working solution were placed back in the 37°C incubator and incubated for 0.5-2 hours. The plates were then taken out, and the absorbance value (OD value) of each well was measured at a wavelength of 450 nm. The cell viability in each experimental group was calculated according to the following formula: Relative cell viability (%) = (Blank control group - Experimental group) / Blank control group × 100%.

HEF cells = test: Senescent cell killing activity test, HEF cell model (CCK-8); format: cell-based, human; conditions: higher concentration (25 µM)
Method: To avoid replication of the induced senescent cells, low-passage proliferating HEF cells (<10 passages), MRC5 cells (<6 passages), and BJ cells (<10 passages) were used as normal controls. For chemical drug induced senescence, HEF cells were treated with 10 µM etoposide (Selleck, S1225) for 36-48 hours, MRC5 cells were treated with 5 µM bleomycin (Selleck, S1225) for 72 hours, and BJ cells were treated with 10 µg/mL bleomycin for 72 hours. Three days after the treatment, the cells were subcultured in fresh culture medium at a 1:3 ratio for 72 hours before further analysis and use.
Non-senescent and induced-senescent HEF cells, non-senescent and induced-senescent MRC5 cells, and non-senescent and induced-senescent BJ cells were respectively digested with trypsin, and centrifuged at 1000 rpm for 5 minutes. Then, the supernatant was removed, and the cells were resuspended in fresh DMEM culture medium containing 10% fetal bovine serum for counting. The cell density was adjusted so that the non-senescent cell density was 4000 cells/100 µL and the senescent cell density was 7000 cells/100 µL. 100 µL of the cell suspension was added to each well of a 96-well transparent cell culture plate. It was noted that the edge wells of the 96-well plate were not used as testing wells, and 300 µL of PBS alone was added to these wells to reduce evaporation of the culture medium. The 96-well plates with the well-plated cells were placed back in a 37°C incubator for overnight culture until the cells adhered. On the next day, the small molecule compounds to be tested were prepared and added after the cells had adhered.
A series of small molecule concentration gradients (0.01, 0.03, 0.1, 0.3, 1, 3, 10, and 25 µM) were pre-set, and a series of 2× drug dilutions for the above concentrations were prepared in DMEM culture medium containing 10% fetal bovine serum. 100 µL of the above DMEM culture medium containing the gradient concentrations of the drug was added to each well of the 96-well plate that had been well-plated with cells, so that the final drug concentration in each well was the pre-set series of concentrations. Three replicate wells were used for each test drug concentration. The 96-well plates were placed back in a 37°C incubator, and cell viability was measured after three days.
Three days after adding the drug, the plates were taken out, and the supernatant was discarded. 100 µL of pre-prepared CCK-8 working solution was added to each well. The CCK-8 working solution was obtained through diluting a CCK-8 stock solution (C0041, Beyotime) with a serum-free DMEM culture medium by 10-fold volumn. The 96-well plates containing the CCK-8 working solution were placed back in the 37°C incubator and incubated for 0.5-2 hours. The plates were then taken out, and the absorbance value (OD value) of each well was measured at a wavelength of 450 nm. The cell viability in each experimental group was calculated according to the following formula: Relative cell viability (%) = (Blank control group - Experimental group) / Blank control group × 100%.

Molt-4 cells [2] = test: Molt-4 cell killing activity test (CCK-8); format: cell-based; conditions: for EC50: Homo sapiens
Method: as §1, with “Molt-4 cells were cultured and amplified in 10 cm dishes by using RPMI-1640 medium supplemented with 10% fetal bovine serum. Actively” for “Actively”, “testing;” for “testing,”
The small molecule compounds to be tested for activity were prepared. A series of small molecule concentration gradients (0.001, 0.003, 0.01, 0.03, 0.1, 0.3, 1, and 3 µM) were pre-set, and a series of 2× drug dilutions for the above concentrations were prepared in RPMI-1640 medium containing 10% fetal bovine serum. 100 µL of the above medium containing the gradient concentrations of the drug was added to each well of a 96-well plate pre-seeded with cells, so that the final drug concentration in each well was the pre-set concentration gradient. Three replicate wells were used for each tested drug concentration. The 96-well plate was placed back in a 37°C incubator, and the cell viability was measured after three days.
as §2, with “The plate” for “Cell viability after drug treatment”, “taken out” for “detected by using the CCK-8 method:”, “drugs,” for “drugs, the plates were taken out,”, “and” for “and the supernatant was discarded. Then,”, “RPMI-1640” for “DMEM culture”, “nm, and the” for “nm. The”

Bcl-xL protein = molecular target: T1, Bcl-xL protein (Homo sapiens, UniProt Q07817); test: Degradation experiment of Bcl-xL target protein (Western blot in Molt-4 cells); format: cell-based; conditions: 100 nM, 0, 2, 6, 16 h, GAPDH internal control, Figure 4
T1 construct: host or cells: Molt-4 cells
Method: Actively growing and healthy Molt-4 cells were subcultured into a fresh RPMI-1640 medium containing 10% fetal bovine serum, and each PROTAC molecule was added thereto at a final concentration of 100 nM. After drug treatment for the specified times (0, 2, 6, and 16 hours), the cells were collected, the supernatant was discarded by centrifugation, and the cells were washed twice with pre-cooled PBS buffer. Total protein was extracted with a lysis buffer (Servicebio, G2002-100ML), and the protein concentration was normalized by using a BCA protein quantification kit (Servicebio, G2026). Protein samples were mixed with a protein-loading buffer and incubated at 95°C for 5 minutes. Western blotting experiments were performed by using the following antibodies: Bcl-xL (Abcam, catalog number ab32370), diluted at 1:500; GAPDH antibody (Servicebio, catalog number GB15004), diluted at 1:1000; and horseradish peroxidase-conjugated goat anti-rabbit secondary antibody (Servicebio, catalog number GB23303), diluted at 1:5000.

[3] = Metabolic stability assay in liver microsomes (human); format: in vitro ADME
Method: (§3) The metabolic reaction of compounds in liver microsome was performed in a system with a total volume of 400 µL, and the following steps below were sequentially performed for the reaction and detection: 1) 200 µL of phosphate buffer (200 mM), 106 µL of sterile ultrapure water, and 40 µL of magnesium chloride solution (50 mM) were added to each detection tube to prepare a reaction working solution. 2) Two reaction systems with or without adding NADPH were prepared for each compound to be tested. For the reaction system with adding NADPH: 10 µL of liver microsomes (20 mg/mL) and 40 µL of NADPH (10 mM) were added to the above working solution; for the reaction system without adding NADPH: 10 µL of liver microsomes (20 mg/mL) and 40 µL of sterile ultrapure water were added to the above working solution. The final concentration of liver microsomes in both reaction systems was 0.5 mg/mL. 3) 4 µL of the compound to be tested ([…]) was added to each reaction tube, resulting in a final concentration of 1 µM for the compound in the reaction system. The detection tubes were placed at 37°C for reaction. 4) 50 µL samples were taken from each detection tube at 0, 15, 30, 45, and 60 minutes after adding the compound. The reaction was terminated by adding cold acetonitrile containing IS (100 nM alprazolam, 200 nM labetalol, 200 nM caffeine, and 2 µM ketoprofen) in a 4× volume. The samples were centrifuged at 3220 g for 40 minutes, 100 µL of the supernatant was mixed with 100 µL of ultrapure water, and a sample was taken for LC-MS/MS analysis.
(§4) Calculation of in vitro liver microsomal metabolic half-life and in vitro metabolic intrinsic clearance rate: The LC-MS detection results were analyzed to obtain the percentage of the remaining amount of the tested compound relative to the initial amount at each time point. The natural logarithm of the remaining percentage was linearly fitted against the incubation time.

[4] = Metabolic stability assay in liver microsomes (mouse); format: in vitro ADME
Method: as §3, §4

[5] = 72 h, Molt-4 cells, three days, CCK-8, read-out: EC50 (Molt-4)
[6] = human liver microsomes 0.5 mg/mL, 1 µM compound, 37°C
[7] = mouse liver microsomes 0.5 mg/mL, 1 µM compound, 37°C

T1 sequence (Q07817 whole entry): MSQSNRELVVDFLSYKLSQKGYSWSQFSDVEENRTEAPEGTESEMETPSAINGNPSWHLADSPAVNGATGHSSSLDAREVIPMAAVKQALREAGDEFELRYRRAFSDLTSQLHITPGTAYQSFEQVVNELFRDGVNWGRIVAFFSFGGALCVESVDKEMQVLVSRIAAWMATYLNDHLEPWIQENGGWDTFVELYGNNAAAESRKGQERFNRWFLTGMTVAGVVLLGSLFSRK

SMILES: CC1(C)CCC(c2ccc(Cl)cc2)=C(CN2CCN(c3ccc(C(=O)NS(=O)(=O)c4ccc(N[C@H](CCN5CCOCC5)CSc5ccccc5)c(S(=O)(=O)C(F)(F)F)c4)cc3)CC2)C1 [ABT-263, reference compound]
cell killing activity after addition of pomalidomide (+poma) compared to without (-poma) (Molt-4 cells [1]): only slightly affected
toxicity on normal non-senescent HEF cells (HEF cells): toxic killing effects on normal non-senescent HEF cells
EC50 (Molt-4 cells [2]; [5]): 100 to 1000 nM

SMILES: Cc1ncsc1-c1ccc([C@H](C)NC(=O)[C@@H]2C[C@@H](O)CN2C(=O)[C@@H](NC(=O)CN2CCN(CC#Cc3ccc(OCCCc4ccc(N5CCc6cccc(C(=O)Nc7nc8ccccc8s7)c6C5)nc4C(=O)O)c(F)c3)CC2)C(C)(C)C)cc1 [APH1]
EC50 (Molt-4 cells [2]; [5]): 10 to 100 nM
degradation of the Bcl-xL protein (Bcl-xL protein): had the ability to degrade the Bcl-xL protein

Clint [3, 6]: 53.56 µL/min/mg protein
T1/2 [3, 6]: 0.4313 h
Clint [4, 7]: 17.61 µL/min/mg protein
T1/2 [4, 7]: 1.312 h
SMILES: [2H]C1([2H])CN(c2ccc(-c3cnn(CC45CC6CC(CC(C6)C4)C5)c3C)c(C(=O)O)n2)Cc2c(C(=O)Nc3nc4ccccc4s3)cccc21 [Compound A13D-5]

Clint [3, 6]: 50.18 µL/min/mg protein
T1/2 [3, 6]: 0.4603 h
Clint [4, 7]: 14.07 µL/min/mg protein
T1/2 [4, 7]: 1.642 h
SMILES: [2H]C1([2H])Cc2cccc(C(=O)Nc3nc4ccccc4s3)c2CN1c1ccc(-c2cnn(CC34CC5CC(CC(C5)C3)C4)c2C)c(C(=O)O)n1 [Compound A13D-6]
metabolic stability in liver microsomes, in words ([3]; human and mouse liver microsomes, compared with A-1331852 and molecules deuterated at other sites): better metabolic stability in liver microsomes

SMILES: Cc1c(-c2ccc(N3CCc4cccc(C(=O)Nc5nc6ccccc6s5)c4C3)nc2C(=O)O)cnn1CC12CC3CC(CC(C3)C1)C2 [Compound A1331852, reference compound]
cell killing activity after addition of pomalidomide (+poma) compared to without (-poma) (Molt-4 cells [1]): only slightly affected

Clint [3, 6]: 7.36 µL/min/mg protein
half-life at 1 µM [3, 6]: 3.14 h
microsomal CLint at 1 µM ([3]; human liver microsomes, read-out: clearance rate (metabolic clearance rate)): 7.36 µL/min/mg
Clint [4, 7]: 4.90 µL/min/mg protein
half-life at 1 µM [4, 7]: 4.71 h
microsomal CLint at 1 µM ([4]; mouse liver microsomes, read-out: clearance rate (metabolic clearance rate)): 4.9 µL/min/mg
SMILES: O=C(Nc1nc2ccccc2s1)c1cccc2c1CN(c1ccc(CCCOc3ccc(C#CCN4CCNCC4)cc3F)c(C(=O)O)n1)CC2 [Compound C1]
cell killing activity after addition of pomalidomide (+poma) compared to without (-poma) (Molt-4 cells [1]): only slightly affected
killing Molt-4 cells at different concentrations (Figure 1), in words (Molt-4 cells [2]; Figure 1, 0.001-3 µM, comparison with control molecules): higher percentage for killing Molt-4 cells than those of ABT-263 and DT-2216, but lower than those of A-1331852 and A-1155463
EC50 (Molt-4 cells [2]; [5]): 10 to 100 nM
EC50 (Molt-4 cells [2]; Bcl-xL-positive Molt-4 cells, read-out: cellular activity / killing activity (Molt-4 cells)): 10 to 100 nM
activity for killing Molt-4 cells, in words (Molt-4 cells [2]; comparison with C1, the targeting ligand or control molecules): higher than that of the commercially available control molecule ABT-263, but lower than those of A-1331852 and A-1155463

SMILES: Cc1ncsc1-c1ccc([C@H](C)NC(=O)[C@@H]2C[C@@H](O)CN2C(=O)[C@@H](NC(=O)CCCCCC(=O)N2CCN(CC[C@H](CSc3ccccc3)Nc3ccc(S(=O)(=O)NC(=O)c4ccc(N5CCN(CC6=C(c7ccc(Cl)cc7)CCC(C)(C)C6)CC5)cc4)cc3S(=O)(=O)C(F)(F)F)CC2)C(C)(C)C)cc1 [DT-2216, reference compound]
cell killing activity after addition of pomalidomide (+poma) compared to without (-poma) (Molt-4 cells [1]): almost unaffected
